From patent US5861424A, “Composition and method for treating cancer” (priority 1995, dated 1999)
Read-outs that look alike come from different tables or passages of the source.

Tests used:
[1] = system: human colon carcinoma cell line CX-1; assay: Colony formation assay, human colon carcinoma CX-1; format: cell-based; settings: for IC50: Homo sapiens, Colon carcinoma cell; for IC50 / CX-1 (IC50): 24 h treatment, colony count after 7 to 10 days; for Selectivity (ratio of IC50 for CV-1 and IC50 for CX-1): CV-1/CX-1
[2] = system: normal monkey kidney epithelial cell line CV-1; assay: Colony formation assay, normal monkey kidney epithelial cells CV-1; settings: for IC50: Primates, Epithelial cell; for CV-1 (IC50): Table III;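 on all read-outs here: colonies visualized by crystal violet staining, incubation at 37 °C, IC50 relative to untreated wells given culture medium alone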
[3] = system: human melanoma LOX cell line; assay: Colony formation assay, human melanoma LOX; format: cell-based; settings: Table V
From the text: (§1) The control received culture media only.

[4] = system: human pancreatic carcinoma CRL 1420 cell line; assay: Colony formation assay, human pancreatic carcinoma CRL 1420; format: cell-based; settings: Homo sapiens, 24 h, Table VII; 24 h treatment
From the text: as §1
The Selectivity values, CRL 1420 values and CV-1 values for compounds of the General Formulas (1) to (6) used in the present invention are shown in Table VII below.

[5] = Table III, read-out: CX-1 (IC50)
[6] = read-out: CV-1 (IC50), Table III, 24 h treatment, colony count after 7 to 10 days
[7] = read-out: CX-1 (IC50), Table III
[8] = 24 h treatment, colony count after 7 to 10 days

Row | Compound | IC50 [1, 5] | Selectivity (ratio of IC50 for CV-1 and IC50 for CX-1) ([1]; Table III) | IC50 [2, 6] | IC50 [1, 7] | also measured
1 | CCn1c(=Cc2sc3cc(C)ccc3[n+]2CC)sc(=CC=C2N(C)c3ccccc3C2(C)C)c1=O [Compound 207] | 0.01 µg/mL | 150 | 1.5 µg/mL | – | –
2 | CCn1c(=Cc2cccc[n+]2CC)sc(=CC=C2Sc3ccc4ccccc4c3N2C)c1=O [Compound 385] | – | 100 | 20 µg/mL | 0.2 µg/mL | –
3 | CCN1C(=CC=c2sc(=Cc3[se]c4ccccc4[n+]3CC)n(CC)c2=O)Sc2ccc3ccccc3c21 [Compound 74] | – | 100 | – | 0.1 µg/mL | IC50 ([2]; read-out: CV-1 (IC50)): 10 µg/mL
4 | CCN1CCSC1=CC=c1sc(=Cc2oc3cc(Cl)c(Cl)cc3[n+]2CC)n(CC)c1=O [Compound 391] | 0.07 µg/mL | 114 | – | – | IC50 ([2]; read-out: CV-1 (IC50)): 8 µg/mL
5 | CCN1C(=CC=c2sc(=Cc3sc4c5ccccc5ccc4[n+]3CC)n(CCOC(C)=O)c2=O)Sc2ccc3ccccc3c21 [Compound 67] | 0.05 µg/mL | 200 | – | – | IC50 ([2]; read-out: CV-1 (IC50)): 10 µg/mL
6 | CCN1CCSC1=CC=c1sc(=Cc2sc3c4ccccc4ccc3[n+]2CC)n(CC)c1=O [Compound 151] | – | 250 | – | – | CX-1 (IC50) ([1]; Table III): 0.08 µg/mL; CV-1 (IC50) [2, 8]: 20 µg/mL
7 | CCN1C(=CC=c2sc(=Cc3sc4c5ccccc5ccc4[n+]3CC)n(CC)c2=O)Sc2c1ccc1ccccc21 [Compound 7] | 0.04 µg/mL | 100 | 4 µg/mL | – | –
8 | CCN1C(=CC=c2sc(=Cc3cc[n+](CC)c4ccccc34)n(CC)c2=O)C=Cc2ccccc21 [Compound 393] | – | 400 | – | – | CX-1 (IC50) ([1]; Table III): 0.05 µg/mL; CV-1 (IC50) [2, 8]: 20 µg/mL
9 | CCN1C=CC(=CC=c2sc(=Cc3sc4ccccc4[n+]3CC)n(CC)c2=O)C=C1 [Compound 317] | – | 100 | 20 µg/mL | 0.2 µg/mL | –
10 | CCN1CCSC1=CC=c1sc(=Cc2sc3cccc(OC)c3[n+]2CC)n(CC)c1=O [Compound 154] | 0.04 µg/mL | 125 | 5 µg/mL | – | –
11 | CCN1C(=CC=c2sc(=Cc3oc4ccc5ccccc5c4[n+]3CC)n(CC)c2=O)Sc2ccc3ccccc3c21 [Compound 70] | 0.04 µg/mL | 250 | – | – | IC50 ([2]; read-out: CV-1 (IC50)): 10 µg/mL
12 | CCN1C(=CC=c2sc(=CC3=[N+](CC)CCS3)n(CC)c2=O)C=Cc2ccccc21 [Compound 400] | – | > 250 | > 20 µg/mL | – | –
13 | CCN1C(=CC=c2sc(=Cc3sc4ccc5ccccc5c4[n+]3CC)n(CC)c2=O)Sc2ccc3ccccc3c21 [Compound 30] | 0.025 µg/mL | – | 5 µg/mL | – | –
14 | CCN1CCSC1=CC=c1sc(=Cc2oc3ccc4ccccc4c3[n+]2CC)n(CC)c1=O [Compound 143] | 0.05 µg/mL | 100 | 5 µg/mL | – | –
15 | CCN1C(=CC=c2sc(=Cc3cc[n+](CC)c4ccccc34)n(CC)c2=O)C=Cc2cc(Cl)ccc21 [Compound 395] | – | 100 | 20 µg/mL | – | CX-1 (IC50) ([1]; Table III): 0.2 µg/mL
16 | CCN1CCSC1=CC=c1sc(=Cc2sc3ccccc3[n+]2CC)n(CC)c1=O [Compound 137] | 0.05 µg/mL | 100 | 5 µg/mL | – | –
17 | CCN1C(=CC=c2sc(=Cc3sc4c5ccccc5ccc4[n+]3CC)n(CC)c2=O)C=Cc2cc(Cl)ccc21 [Compound 253] | 0.04 µg/mL | > 500 | > 20 µg/mL | – | –
18 | CCN1C(=CC=c2sc(=CC3=[N+](CC)CCS3)n(CC)c2=O)C=Cc2ccccc21 [Compound 394] | – | 125 | – | 0.08 µg/mL | IC50 ([2]; read-out: CV-1 (IC50)): 10 µg/mL
19 | CCn1c(=Cc2oc3c4ccccc4ccc3[n+]2CC)sc(=CC=C2N(C)c3ccccc3C2(C)C)c1=O [Compound 208] | 0.01 µg/mL | 600 | 6 µg/mL | – | IC50 ([3]; Homo sapiens, LOX, 24 h, 24 h treatment, read-out: LOX (IC50)): 0.039 µg/mL; Selectivity (CV-1 IC50 / LOX IC50) ([3]; CV-1/LOX): 154; IC50 ([2]; read-out: CV-1 (IC50), Table V): 6 µg/mL
20 | CCN1C(C)=CSC1=CC=c1sc(=Cc2sc3ccccc3[n+]2CC)n(CC)c1=O [Compound 92] | 0.05 µg/mL | 180 | – | – | CV-1 (IC50) [2, 8]: 9 µg/mL
21 | CCN1C(C)=CSC1=CC=c1sc(=C2CCC[n+]3c2sc2ccccc23)n(CC)c1=O [Compound 386] | – | 100 | – | 0.1 µg/mL | IC50 ([2]; read-out: CV-1 (IC50)): 10 µg/mL

Row | Compound | IC50 [1, 5] | Selectivity (ratio of IC50 for CV-1 and IC50 for CX-1) ([1]; Table III) | IC50 [2, 6] | IC50 [1, 7] | also measured
22 | CCN1C(=CC=c2sc(=Cc3sc4c5ccccc5ccc4[n+]3CC)n(-c3ccccc3)c2=O)Sc2ccc3ccccc3c21 [Compound 68] | – | 100 | 5 µg/mL | – | –
23 | CCN1C(=CC=c2sc(=Cc3sc4c5ccccc5ccc4[n+]3CC)n(CC)c2=O)C(C)(C)c2cc(Cl)ccc21 [Compound 220] | 0.04 µg/mL | 125 | 5 µg/mL | – | –
24 | CCN1C(=CC=c2sc(=Cc3sc4c5ccccc5ccc4[n+]3CC)n(CC)c2=O)C=Cc2cc(C)ccc21 [Compound 254] | – | 100 | – | 0.1 µg/mL | IC50 ([2]; read-out: CV-1 (IC50)): 10 µg/mL
25 | CCN1C=CC=CC1=CC=c1sc(=Cc2sc3ccc4ccccc4c3[n+]2CC)n(CC)c1=O [Compound 398] | 0.04 µg/mL | 400 | 16 µg/mL | – | –
26 | CCN1C=CC(=CC=c2sc(=Cc3sc4ccc5ccccc5c4[n+]3CC)n(CC)c2=O)c2ccccc21 [Compound 307] | 0.02 µg/mL | 150 | 3 µg/mL | – | –
27 | CCN1CCSC1=CC=c1sc(=Cc2sc3cc(OC)c(OC)cc3[n+]2CC)n(CC)c1=O [Compound 134] | – | 100 | – | 0.1 µg/mL | IC50 ([2]; read-out: CV-1 (IC50)): 10 µg/mL
28 | CCN1CCSC1=CC=c1sc(=Cc2sc3c4ccccc4ccc3[n+]2CC)n(CC)c1=O [Compound 138] | 0.005 µg/mL | 160 | – | – | CV-1 (IC50) [2, 8]: 0.8 µg/mL
29 | CCN1C(C)=CSC1=CC=c1sc(=C2CCC[n+]3c2sc2ccccc23)n(CC)c1=O [Compound 389] | – | 188 | 15 µg/mL | – | CX-1 (IC50) ([1]; Table III): 0.08 µg/mL
30 | CCN1CCSC1=CC=c1sc(=Cc2[se]c3ccccc3[n+]2CC)n(CC)c1=O [Compound 157] | – | 100 | – | 0.08 µg/mL | IC50 ([2]; read-out: CV-1 (IC50)): 8 µg/mL
31 | CCN1CCSC1=CC=c1sc(=CC2=[N+](CC)CCS2)n(CC)c1=O [Compound 142] | – | 200 | 20 µg/mL | 0.1 µg/mL | –
32 | CCN1C(C)=CSC1=CC=c1sc(=Cc2oc3cc(C)c(C)cc3[n+]2CC)n(CC)c1=O [Compound 388] | – | 261 | – | 0.03 µg/mL | IC50 ([2]; read-out: CV-1 (IC50)): 8 µg/mL
33 | CCOc1ccc2c(c1)C=CC(=CC=c1sc(=Cc3sc4c5ccccc5ccc4[n+]3CC)n(CC)c1=O)N2CC [Compound 252] | – | > 200 | > 20 µg/mL | 0.1 µg/mL | –
34 | CCCCC[n+]1c(C=c2sc(=CC=C3SC=C(C)N3CC)c(=O)n2CC)sc2cc(OC)c(OC)cc21 [Compound 399] | – | 100 | – | 0.1 µg/mL | IC50 ([2]; read-out: CV-1 (IC50)): 10 µg/mL
35 | CCN1C(=CC=c2sc(=Cc3sc4ccc5ccccc5c4[n+]3CC)n(CC)c2=O)Sc2c1ccc1ccccc21 [Compound 20] | – | 200 | 6 µg/mL | 0.03 µg/mL | –
36 | CCN1C(=CC=c2sc(=Cc3cc[n+](CC)c4ccccc34)n(CC)c2=O)C=Cc2cc(Cl)ccc21 [Compound 396] | – | 250 | – | – | CX-1 (IC50) ([1]; Table III): 0.08 µg/mL
37 | CCOc1cc2c(cc1C)sc(C=c1sc(=CC=C3N(C)c4ccccc4C3(C)C)c(=O)n1CC)[n+]2CC [Compound 209] | 0.01 µg/mL | 100 | 1 µg/mL | – | –
38 | CCN1C(=CC=c2sc(=Cc3ccc4ccccc4[n+]3CC)n(CC)c2=O)Sc2ccc3ccccc3c21 [Compound 40] | 0.02 µg/mL | 257 | 5.14 µg/mL | – | IC50 [4]: 0.05 µg/mL; IC50 ([2]; read-out: CV-1 (IC50), Table VII): 2 µg/mL
39 | CCN1CCSC1=CC=c1sc(=Cc2oc3c4ccccc4ccc3[n+]2CC)n(CC)c1=O [Compound 390] | – | 250 | 20 µg/mL | 0.08 µg/mL | –
40 | CCn1c(=Cc2sc3cc(Cl)c(Cl)cc3[n+]2CC)sc(=CC=C2Sc3ccc4ccccc4c3N2C)c1=O [Compound 383] | – | 200 | 20 µg/mL | 0.1 µg/mL | –
41 | CCN1C(=CC=c2sc(=Cc3cc[n+](CC)c4ccccc34)n(CC)c2=O)C=Cc2ccccc21 [Compound 392] | – | 286 | – | – | CX-1 (IC50) ([1]; Table III): 0.01 µg/mL; CV-1 (IC50) [2, 8]: 20 µg/mL
42 | CCN1C=C(C)C=CC1=CC=c1sc(=Cc2sc3cc(C)c(C)cc3[n+]2CC)n(CC)c1=O [Compound 397] | 0.05 µg/mL | 400 | 20 µg/mL | – | –
